Laboratory results from article PMC3523717 (Angewandte Chemie (International ed. in English), 2012).
pIC50: −log10 of the molar value.

Biological target: T1, Aurora kinase A (AKA) (Homo sapiens, UniProt O14965)
T1 sequence (O14965 1-403): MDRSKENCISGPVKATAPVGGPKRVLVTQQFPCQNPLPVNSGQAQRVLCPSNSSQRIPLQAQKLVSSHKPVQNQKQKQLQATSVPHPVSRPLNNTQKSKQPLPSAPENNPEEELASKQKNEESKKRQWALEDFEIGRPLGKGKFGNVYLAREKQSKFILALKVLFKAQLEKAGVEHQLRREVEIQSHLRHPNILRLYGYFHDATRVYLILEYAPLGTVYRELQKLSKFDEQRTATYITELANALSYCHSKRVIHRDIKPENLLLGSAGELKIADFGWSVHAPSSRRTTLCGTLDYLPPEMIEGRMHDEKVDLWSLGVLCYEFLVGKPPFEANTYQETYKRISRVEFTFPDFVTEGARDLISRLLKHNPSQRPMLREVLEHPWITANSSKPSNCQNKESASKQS
Assay: kinase activity assay
Assay type: biochemical

Substance: MLN8054-TCO [compound 13]
- pIC50: 7.21
